From PubChem BioAssay (NCI)
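Values below derive from 48-hour exposures of cells grown in 96-well plates, with endpoints linearly interpolated between the two concentrations bracketing the appropriate inhibition level. Here, GI50 denotes the concentration required for 50% inhibition of growth. At the TGI there is no net growth.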

Legend:
Experiment in all cases: growth of human tumour cells (NCI), 48 h
NCI-H23 lung = system: NCI-H23 lung
NCI-H460 lung = system: NCI-H460 lung
NCI-H522 lung = system: NCI-H522 lung
NCI/ADR-RES ovarian = system: NCI/ADR-RES ovarian
OVCAR-3 ovarian = system: OVCAR-3 ovarian
OVCAR-4 ovarian = system: OVCAR-4 ovarian
OVCAR-5 ovarian = system: OVCAR-5 ovarian
OVCAR-8 ovarian = system: OVCAR-8 ovarian
PC-3 prostate = system: PC-3 prostate
RPMI-8226 leukemia = system: RPMI-8226 leukemia
RXF 393 renal = system: RXF 393 renal
SF-268 CNS = system: SF-268 CNS
SF-295 CNS = system: SF-295 CNS
SF-539 CNS = system: SF-539 CNS
SK-MEL-2 melanoma = system: SK-MEL-2 melanoma
SK-MEL-28 melanoma = system: SK-MEL-28 melanoma
SK-MEL-5 melanoma = system: SK-MEL-5 melanoma
SK-OV-3 ovarian = system: SK-OV-3 ovarian
SN12C renal = system: SN12C renal
SNB-19 CNS = system: SNB-19 CNS
SNB-75 CNS = system: SNB-75 CNS
SR leukemia = system: SR leukemia
SW-620 colon = system: SW-620 colon
T-47D breast = system: T-47D breast
TK-10 renal = system: TK-10 renal
U251 CNS = system: U251 CNS
UACC-257 melanoma = system: UACC-257 melanoma
UACC-62 melanoma = system: UACC-62 melanoma
UO-31 renal = system: UO-31 renal

In the case of `COc1ccc(N2C(=O)C(c3ccccc3)(c3ccccc3)C23C(=O)N(C)c2ccccc23)cc1` (stereo not drawn), the GI50 (NCI-H23 lung) is reported as over 100 µM, the TGI (NCI-H23 lung) is reported as over 100 µM and the GI50 (NCI-H460 lung) is reported as over 100 µM. It also gave a TGI (NCI-H460 lung) of over 100 µM, a GI50 (NCI-H522 lung) of over 100 µM and a TGI (NCI-H522 lung) of over 100 µM. It also gave a GI50 (NCI/ADR-RES ovarian) of over 100 µM, a TGI (NCI/ADR-RES ovarian) of over 100 µM and a GI50 (OVCAR-3 ovarian) of over 100 µM. The TGI (OVCAR-3 ovarian) was over 100 µM, the GI50 (OVCAR-4 ovarian) was over 100 µM and the TGI (OVCAR-4 ovarian) was over 100 µM. For the same molecule, the GI50 (OVCAR-5 ovarian) was over 100 µM, the TGI (OVCAR-5 ovarian) was over 100 µM and the GI50 (OVCAR-8 ovarian) was over 100 µM. The TGI (OVCAR-8 ovarian) was over 100 µM, the GI50 (PC-3 prostate) was over 100 µM and the TGI (PC-3 prostate) was over 100 µM. The GI50 (RPMI-8226 leukemia) was over 100 µM, the TGI (RPMI-8226 leukemia) was over 100 µM and the GI50 (RXF 393 renal) was over 100 µM. It also gave a TGI (RXF 393 renal) of over 100 µM, a GI50 (SF-268 CNS) of over 100 µM and a TGI (SF-268 CNS) of over 100 µM. The GI50 (SF-295 CNS) was over 100 µM, the TGI (SF-295 CNS) was over 100 µM and the GI50 (SF-539 CNS) was over 100 µM. For the same molecule, the TGI (SF-539 CNS) was over 100 µM, the GI50 (SK-MEL-2 melanoma) was over 100 µM and the TGI (SK-MEL-2 melanoma) was over 100 µM. It also gave a GI50 (SK-MEL-28 melanoma) of over 100 µM, a TGI (SK-MEL-28 melanoma) of over 100 µM and a GI50 (SK-MEL-5 melanoma) of over 100 µM. For the same molecule, the TGI (SK-MEL-5 melanoma) was over 100 µM, the GI50 (SK-OV-3 ovarian) was over 100 µM and the TGI (SK-OV-3 ovarian) was over 100 µM. For the same molecule, the GI50 (SN12C renal) was over 100 µM, the TGI (SN12C renal) was over 100 µM and the GI50 (SNB-19 CNS) was over 100 µM. For the same molecule, the TGI (SNB-19 CNS) was over 100 µM, the GI50 (SNB-75 CNS) was 89.1 µM and the TGI (SNB-75 CNS) was over 100 µM. The GI50 (SR leukemia) was over 100 µM, the TGI (SR leukemia) was over 100 µM and the GI50 (SW-620 colon) was over 100 µM. It also gave a TGI (SW-620 colon) of over 100 µM, a GI50 (T-47D breast) of over 100 µM and a TGI (T-47D breast) of over 100 µM. It also gave a GI50 (TK-10 renal) of over 100 µM, a TGI (TK-10 renal) of over 100 µM and a GI50 (U251 CNS) of over 100 µM. The TGI (U251 CNS) was over 100 µM, the GI50 (UACC-257 melanoma) was over 100 µM and the TGI (UACC-257 melanoma) was over 100 µM. The GI50 (UACC-62 melanoma) was over 100 µM, the TGI (UACC-62 melanoma) was over 100 µM and the GI50 (UO-31 renal) was over 100 µM. It also gave a TGI (UO-31 renal) of over 100 µM.
